Reference: ChEMBL document CHEMBL5346921, “Discovery of novel benzamide derivatives bearing benzamidophenyl and phenylacetamidophenyl scaffolds as potential antitumor agents via targeting PARP-1” (Eur J Med Chem, 2023)
The source made the active and inactive calls. The calls are words filed in the database; no cut-off is given here.

Tests used:
[1] = Cytotoxicity against human NCM460 cells assessed as reduction in cell viability incubated for 48 hrs by MTT assay; format: toxicity, cell-based
[2] = Selectivity index, ratio of IC50 for cytotoxicity against human NCM460 cells to IC50 for antiproliferative activity against human HCT-116 cells; format: toxicity, cell-based; conditions: NCM460 cells and HCT-116 cells, read-out: Ratio IC50
[3] = target: Poly [ADP-ribose] polymerase 1 (Homo sapiens, UniProt P09874); assay: Inhibition of human PARP-1 by ELISA
[4] = target: Poly [ADP-ribose] polymerase 2 (Homo sapiens, UniProt Q9UGN5); assay: Inhibition of human PARP-2 by ELISA
HCT-116 [5] = assay: Inhibition of colony formation in human HCT-116 cells pretreated for 48 hrs followed by replacement of fresh medium and measured every 3 days by crystal violet staining based analysis; format: functional, cell-based; conditions: dose 0.3-3 µM
HCT-116 [6] = assay: Inhibition of colony formation in human HCT-116 cells at 3 uM pretreated for 48 hrs followed by replacement of fresh medium and measured every 3 days by crystal violet staining based analysis; format: functional
HCT-116 [7] = assay: Inhibition of cell migration in human HCT-116 cells at 0.3 uM incubated for 24 hrs by wound healing assay; format: functional
HCT-116 [8] = assay: Inhibition of cell migration in human HCT-116 cells at 3 uM incubated for 24 hrs by wound healing assay; format: functional
HCT-116 [9] = assay: Induction of cell cycle arrest in human HCT-116 cells assessed as accumulation of cells at G2/M phase at 0.3 uM incubated for 48 hrs by PI staining based flow cytometry (reference value: 24.7%); format: functional
HCT-116 [10] = assay: Induction of cell cycle arrest in human HCT-116 cells assessed as accumulation of cells at S phase at 7.5 uM incubated for 48 hrs by PI staining based flow cytometry (reference value: 14.5%); format: functional
HCT-116 [11] = assay: Induction of cell cycle arrest in human HCT-116 cells assessed as accumulation of cells at G2/M phase at 7.5 uM incubated for 48 hrs by PI staining based flow cytometry (reference value: 24.7%); format: functional
HCT-116 [12] = assay: Induction of cell cycle arrest in human HCT-116 cells assessed as accumulation of cells at G2/M phase at 0.3 uM incubated for 72 hrs by PI staining based flow cytometry (reference value: 25.4%); format: functional
HCT-116 [13] = assay: Induction of cell cycle arrest in human HCT-116 cells assessed as accumulation of cells at G0/G1 phase at 1.5 uM incubated for 72 hrs by PI staining based flow cytometry (reference value: 57.2%); format: functional
HCT-116 [14] = assay: Induction of cell cycle arrest in human HCT-116 cells assessed as accumulation of cells at G2/M phase at 1.5 uM incubated for 72 hrs by PI staining based flow cytometry (reference value: 25.4%); format: functional
HCT-116 [15] = assay: Induction of cell cycle arrest in human HCT-116 cells assessed as accumulation of cells at G0/G1 phase at 7.5 uM incubated for 72 hrs by PI staining based flow cytometry (reference value: 57.2%); format: functional
HCT-116 [16] = assay: Induction of apoptosis in human HCT-116 cells assessed as viable cells at 1.5 uM incubated for 48 hrs by AnnexinV-FITC/PI staining based flow cytometry (reference value: 97.89%); format: functional; conditions: read-out: Activity
HCT-116 [17] = assay: Induction of apoptosis in human HCT-116 cells assessed as early apoptotic cells at 1.5 uM incubated for 48 hrs by AnnexinV-FITC/PI staining based flow cytometry (reference value: 2.11%); format: functional
HCT-116 [18] = assay: Induction of apoptosis in human HCT-116 cells assessed as necrotic cells at 1.5 uM incubated for 48 hrs by AnnexinV-FITC/PI staining based flow cytometry (reference value: 0%); format: functional
HCT-116 [19] = assay: Induction of apoptosis in human HCT-116 cells assessed as early apoptotic cells at 7.5 uM incubated for 48 hrs by AnnexinV-FITC/PI staining based flow cytometry (reference value: 2.11%); format: functional
HCT-116 [20] = assay: Induction of apoptosis in human HCT-116 cells assessed as late apoptotic cells at 7.5 uM incubated for 48 hrs by AnnexinV-FITC/PI staining based flow cytometry (reference value: 0%); format: functional
HCT-116 [21] = assay: Induction of apoptosis in human HCT-116 cells assessed as necrotic cells at 7.5 uM incubated for 48 hrs by AnnexinV-FITC/PI staining based flow cytometry (reference value: 0%); format: functional
HCT-116 [22] = assay: Induction of apoptosis in human HCT-116 cells assessed as viable cells at 0.3 uM incubated for 72 hrs by AnnexinV-FITC/PI staining based analysis (reference value: 98.95%); format: functional; conditions: read-out: Activity
HCT-116 [23] = assay: Induction of apoptosis in human HCT-116 cells assessed as early apoptotic cells at 0.3 uM incubated for 72 hrs by AnnexinV-FITC/PI staining based analysis (reference value: 1.05%); format: functional
HCT-116 [24] = assay: Induction of apoptosis in human HCT-116 cells assessed as viable cells at 1.5 uM incubated for 72 hrs by AnnexinV-FITC/PI staining based analysis (reference value: 98.95%); format: functional; conditions: read-out: Activity
HCT-116 [25] = assay: Induction of apoptosis in human HCT-116 cells assessed as early apoptotic cells at 1.5 uM incubated for 72 hrs by AnnexinV-FITC/PI staining based analysis (reference value: 1.05%); format: functional
HCT-116 [26] = assay: Induction of apoptosis in human HCT-116 cells assessed as late apoptotic cells at 1.5 uM incubated for 72 hrs by AnnexinV-FITC/PI staining based analysis (reference value: 0%); format: functional
HCT-116 [27] = assay: Induction of apoptosis in human HCT-116 cells assessed as necrotic cells at 1.5 uM incubated for 72 hrs by AnnexinV-FITC/PI staining based analysis (reference value: 0%); format: functional
HCT-116 [28] = assay: Induction of apoptosis in human HCT-116 cells assessed as necrotic cells at 7.5 uM incubated for 72 hrs by AnnexinV-FITC/PI staining based analysis (reference value: 0%); format: functional
HCT-116 [29] = assay: Induction of mitochondrial membrane potential loss in human HCT-116 cells assessed as increase in monomer JC-1 level by measuring green fluorescence intensity at 3 uM incubated for 48 hrs by immunofluorescence analysis; format: functional, cell-based
HCT-116 [30] = assay: Induction of mitochondrial membrane potential loss in human HCT-116 cells assessed as JC-1 aggregate level by measuring red fluorescence intensity at 1 uM incubated for 48 hrs by JC-1 staining based flow cytometry (reference value: 96.72%); format: functional
HCT-116 [31] = assay: Induction of mitochondrial membrane potential loss in human HCT-116 cells assessed as JC-1 monomer level by measuring green fluorescence intensity at 1 uM incubated for 48 hrs by JC-1 staining based flow cytometry (reference value: 3.28%); format: functional
HCT-116 [32] = assay: Induction of mitochondrial membrane potential loss in human HCT-116 cells assessed as JC-1 monomer level by measuring green fluorescence intensity at 3 uM incubated for 48 hrs by JC-1 staining based flow cytometry (reference value: 3.28%); format: functional
HCT-116 [33] = assay: Induction of apoptosis in human HCT-116 cells assessed as increase in Bax protein expression incubated for 48 hrs by western blot analysis; format: functional, cell-based; conditions: dose 0.3-3 µM
HCT-116 [34] = assay: Induction of apoptosis in human HCT-116 cells assessed as increase in cleaved caspase-3 protein expression incubated for 48 hrs by western blot analysis; format: functional, cell-based; conditions: dose 0.3-3 µM
SW480 = assay: cells; conditions: Homo sapiens, SW480, 48 h
Description: Antiproliferative activity against human SW480 cells assessed as reduction in cell viability incubated for 48 hrs by MTT assay

Sequence of Poly [ADP-ribose] polymerase 1 (P09874 whole entry): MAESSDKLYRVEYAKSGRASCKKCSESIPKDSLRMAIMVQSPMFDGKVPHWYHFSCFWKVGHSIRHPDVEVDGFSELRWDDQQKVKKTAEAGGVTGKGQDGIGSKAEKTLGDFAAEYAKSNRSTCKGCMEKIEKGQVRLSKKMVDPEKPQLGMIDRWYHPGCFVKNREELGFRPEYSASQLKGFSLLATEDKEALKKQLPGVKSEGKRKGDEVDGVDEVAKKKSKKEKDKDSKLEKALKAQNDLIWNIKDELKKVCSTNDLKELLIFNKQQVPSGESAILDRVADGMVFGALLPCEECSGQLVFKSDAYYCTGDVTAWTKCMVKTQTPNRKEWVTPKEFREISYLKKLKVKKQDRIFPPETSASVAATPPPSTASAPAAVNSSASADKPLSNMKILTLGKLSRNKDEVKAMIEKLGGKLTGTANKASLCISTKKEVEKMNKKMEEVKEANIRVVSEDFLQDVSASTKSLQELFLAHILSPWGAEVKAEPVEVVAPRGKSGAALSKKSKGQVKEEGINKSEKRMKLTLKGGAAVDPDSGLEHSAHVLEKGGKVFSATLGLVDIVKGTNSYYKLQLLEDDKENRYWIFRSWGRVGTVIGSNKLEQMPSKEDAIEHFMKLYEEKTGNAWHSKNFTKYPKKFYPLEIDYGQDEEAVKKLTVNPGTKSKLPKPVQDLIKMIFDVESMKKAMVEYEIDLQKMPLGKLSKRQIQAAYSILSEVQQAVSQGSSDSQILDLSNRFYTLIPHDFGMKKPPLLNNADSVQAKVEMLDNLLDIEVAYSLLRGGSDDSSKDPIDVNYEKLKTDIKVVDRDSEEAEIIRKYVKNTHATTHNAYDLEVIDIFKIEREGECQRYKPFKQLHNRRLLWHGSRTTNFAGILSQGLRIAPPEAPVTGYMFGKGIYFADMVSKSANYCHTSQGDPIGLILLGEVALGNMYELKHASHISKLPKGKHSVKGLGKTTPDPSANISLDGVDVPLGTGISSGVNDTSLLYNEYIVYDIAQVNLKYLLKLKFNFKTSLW
Sequence of Poly [ADP-ribose] polymerase 2 (Q9UGN5 whole entry): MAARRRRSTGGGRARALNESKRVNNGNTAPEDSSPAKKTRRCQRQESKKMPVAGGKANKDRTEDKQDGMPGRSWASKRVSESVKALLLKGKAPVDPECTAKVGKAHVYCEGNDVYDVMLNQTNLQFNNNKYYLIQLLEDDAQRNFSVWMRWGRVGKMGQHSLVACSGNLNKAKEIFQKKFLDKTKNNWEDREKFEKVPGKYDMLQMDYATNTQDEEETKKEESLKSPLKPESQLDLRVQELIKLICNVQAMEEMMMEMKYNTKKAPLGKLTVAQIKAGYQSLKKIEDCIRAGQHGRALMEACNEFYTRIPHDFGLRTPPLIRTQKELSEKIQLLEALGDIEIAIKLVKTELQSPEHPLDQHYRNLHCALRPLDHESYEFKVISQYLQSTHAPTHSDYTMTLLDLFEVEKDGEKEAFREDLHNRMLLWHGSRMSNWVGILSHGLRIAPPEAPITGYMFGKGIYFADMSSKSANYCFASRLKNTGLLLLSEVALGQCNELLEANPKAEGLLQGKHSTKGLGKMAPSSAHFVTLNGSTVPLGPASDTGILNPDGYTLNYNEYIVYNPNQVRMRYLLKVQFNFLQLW

NC(=O)c1ccccc1OCc1cccc(NC(=O)c2ccc(Br)cc2)c1
IC50 at 48 h [1]: 487 µM
selectivity ratio [2]: 1640
IC50 [3]: 0.00025 µM
IC50 [4]: 0.00234 µM
inhibition (HCT-116 [5]): Dose-Dependent Effect
inhibition at 3 µM (HCT-116 [6]): 100%
inhibition at 0.3 µM (HCT-116 [7]): 12.4%
inhibition at 3 µM (HCT-116 [8]): 22.3%
Activity (HCT-116 [9]): 28.6%
Activity (HCT-116 [10]): 10.4%
Activity (HCT-116 [11]): 41%
Activity (HCT-116 [12]): 29.6%
Activity (HCT-116 [13]): 45.1%
Activity (HCT-116 [14]): 35.5%
Activity (HCT-116 [15]): 34.4%
viability at 1.5 µM (HCT-116 [16]): 73%
Activity (HCT-116 [17]): 22.69%
Activity (HCT-116 [18]): 1.38%
Activity (HCT-116 [19]): 40.9%
Activity (HCT-116 [20]): 1.19%
Activity (HCT-116 [21]): 0.51%
viability at 0.3 µM (HCT-116 [22]): 76.3%
Activity (HCT-116 [23]): 23.69%
viability at 1.5 µM (HCT-116 [24]): 69.3%
Activity (HCT-116 [25]): 30.42%
Activity (HCT-116 [26]): 0.26%
Activity (HCT-116 [27]): 0.01%
Activity (HCT-116 [28]): 0.01%
Activity (HCT-116 [29]): Active
Activity (HCT-116 [30]): 85.84%
Activity (HCT-116 [31]): 14.16%
Activity (HCT-116 [32]): 50.03%
Activity (HCT-116 [33]): Dose-Dependent Effect
Activity (HCT-116 [34]): Dose-Dependent Effect
IC50 (SW480): 33.7 µM
